{"source": "patent US11542470B2", "about": "“Methods of differentiating stem cell-derived proprioceptors” (MEMORIAL SLOAN-KETTERING CANCER CENTER, priority 2016, dated 2023)", "key": {"human stem cells": {"tested_on": "human stem cells", "test": "Differentiation of human stem cells into sensory neuron subtypes in E8/E6 medium (TrkA, TrkB, TrkC)", "format": "cell-based", "conditions": "CHIR99021 3 μM, 1.5 μM and 0.75 μM from day 2 through day 12, FIG. 3B", "description": "An E8/E6 medium was used to differentiate human stem cells into sensory neurons, including nociceptors, proprioceptors, and mechanoceptors. […] On day 4, day 8, day 12, and day 16, the cells were measured for CD49d expression. […] On day 16 and day 20, cells were stained for BRN3A, TUJ1, and DAPI. […] TrkA is a nociceptor marker, TrkB is a mechanoreceptor marker, and TrkC is a proprioceptor marker."}, "rodent GSK3β homologs": {"tested_on": "rodent GSK3β homologs", "conditions": "cited from earlier work"}}}
{"smiles": "Cc1c[nH]c(-c2cnc(NCCNc3ccc(C#N)cn3)nc2-c2ccc(Cl)cc2Cl)n1", "note": "[CHIR99021, 6-(2-(4-(2,4-dichlorophenyl)-5-(4-methyl-1H-imidazol-2-yl)pyrimidin-2-ylamino)ethylamino)nicotinonitrile]", "values": [{"measurement": "generation of the three sensory neuron subtypes (nociceptors, proprioceptors, mechanoreceptors)", "setting": "human stem cells", "value": "generated at similar efficiencies"}, {"measurement": "IC50 values against rodent GSK3β homologs", "setting": "rodent GSK3β homologs", "value": "nanomolar"}]}
